Where two headings read alike, the source gives them in different places.
Assays:
[1] = molecular target: T1, TLR7 (Mus musculus, UniProt P58681); experiment: In vivo TLR7 knockdown (JB6011 agonist challenge); design: species or system mice; settings: for ED50: translated for a 25 gram mouse
T1 construct: endogenous in cells
T1 sequence (P58681 27-1050): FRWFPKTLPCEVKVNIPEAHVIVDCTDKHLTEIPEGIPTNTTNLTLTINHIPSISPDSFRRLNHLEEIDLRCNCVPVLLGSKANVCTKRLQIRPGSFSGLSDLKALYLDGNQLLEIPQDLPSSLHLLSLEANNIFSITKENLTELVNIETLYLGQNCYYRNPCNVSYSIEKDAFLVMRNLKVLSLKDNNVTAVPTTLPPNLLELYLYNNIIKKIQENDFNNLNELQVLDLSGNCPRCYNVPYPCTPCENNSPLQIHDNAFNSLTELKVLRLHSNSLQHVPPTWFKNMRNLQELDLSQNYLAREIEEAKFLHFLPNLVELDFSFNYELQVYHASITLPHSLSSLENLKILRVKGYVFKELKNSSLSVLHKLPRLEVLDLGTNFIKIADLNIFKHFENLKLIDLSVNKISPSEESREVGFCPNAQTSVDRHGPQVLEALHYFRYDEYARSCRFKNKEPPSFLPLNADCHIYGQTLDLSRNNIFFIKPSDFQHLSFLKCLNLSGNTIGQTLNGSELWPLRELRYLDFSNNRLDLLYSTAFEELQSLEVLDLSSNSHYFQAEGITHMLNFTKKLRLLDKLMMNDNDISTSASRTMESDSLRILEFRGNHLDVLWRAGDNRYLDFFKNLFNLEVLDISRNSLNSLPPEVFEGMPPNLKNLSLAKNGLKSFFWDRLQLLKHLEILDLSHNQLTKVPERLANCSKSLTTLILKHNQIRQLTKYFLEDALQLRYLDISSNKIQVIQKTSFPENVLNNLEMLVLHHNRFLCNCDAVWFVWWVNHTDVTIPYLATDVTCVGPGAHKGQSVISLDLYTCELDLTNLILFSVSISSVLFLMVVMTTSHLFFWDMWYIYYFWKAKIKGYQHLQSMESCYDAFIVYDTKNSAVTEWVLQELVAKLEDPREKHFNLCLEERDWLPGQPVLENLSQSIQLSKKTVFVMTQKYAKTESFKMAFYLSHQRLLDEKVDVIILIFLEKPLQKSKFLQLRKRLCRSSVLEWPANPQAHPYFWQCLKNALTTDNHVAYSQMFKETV
Experimental: Mice were treated with test antagonist at varying doses at T=0 hr. Agonist treatment (CpG-DNA) dosed one hour later, T=1 hr for IP groups and two hours later, T=2 hr for PO groups. Necropsy performed 3 hours post agonist treatment, T=4 hr (IP groups) or T=5 hr (PO groups). Serum cytokines induced by the TLR agonist are measured by ELISA. Groups size per dose, n=3. The mean+/−SD of two independent ELISA's at differing serum dilutions is plotted.
JB6121 was also tested in vivo for TLR7 knockdown activity utilizing the TLR7 small molecule agonist JB6011 as the agonist challenge. […] This roughly translates to a 3.92 mg/kg IP dose and 11.44 mg/kg PO dose for a 25 gram mouse.

[2] = molecular target: T2, hERG (Homo sapiens, UniProt Q12809); experiment: hERG automated patch clamp (CEREP); assay type: cell-based
T2 construct: host or cells: CHO (Chinese hamster ovary)
T2 sequence (Q12809 whole entry): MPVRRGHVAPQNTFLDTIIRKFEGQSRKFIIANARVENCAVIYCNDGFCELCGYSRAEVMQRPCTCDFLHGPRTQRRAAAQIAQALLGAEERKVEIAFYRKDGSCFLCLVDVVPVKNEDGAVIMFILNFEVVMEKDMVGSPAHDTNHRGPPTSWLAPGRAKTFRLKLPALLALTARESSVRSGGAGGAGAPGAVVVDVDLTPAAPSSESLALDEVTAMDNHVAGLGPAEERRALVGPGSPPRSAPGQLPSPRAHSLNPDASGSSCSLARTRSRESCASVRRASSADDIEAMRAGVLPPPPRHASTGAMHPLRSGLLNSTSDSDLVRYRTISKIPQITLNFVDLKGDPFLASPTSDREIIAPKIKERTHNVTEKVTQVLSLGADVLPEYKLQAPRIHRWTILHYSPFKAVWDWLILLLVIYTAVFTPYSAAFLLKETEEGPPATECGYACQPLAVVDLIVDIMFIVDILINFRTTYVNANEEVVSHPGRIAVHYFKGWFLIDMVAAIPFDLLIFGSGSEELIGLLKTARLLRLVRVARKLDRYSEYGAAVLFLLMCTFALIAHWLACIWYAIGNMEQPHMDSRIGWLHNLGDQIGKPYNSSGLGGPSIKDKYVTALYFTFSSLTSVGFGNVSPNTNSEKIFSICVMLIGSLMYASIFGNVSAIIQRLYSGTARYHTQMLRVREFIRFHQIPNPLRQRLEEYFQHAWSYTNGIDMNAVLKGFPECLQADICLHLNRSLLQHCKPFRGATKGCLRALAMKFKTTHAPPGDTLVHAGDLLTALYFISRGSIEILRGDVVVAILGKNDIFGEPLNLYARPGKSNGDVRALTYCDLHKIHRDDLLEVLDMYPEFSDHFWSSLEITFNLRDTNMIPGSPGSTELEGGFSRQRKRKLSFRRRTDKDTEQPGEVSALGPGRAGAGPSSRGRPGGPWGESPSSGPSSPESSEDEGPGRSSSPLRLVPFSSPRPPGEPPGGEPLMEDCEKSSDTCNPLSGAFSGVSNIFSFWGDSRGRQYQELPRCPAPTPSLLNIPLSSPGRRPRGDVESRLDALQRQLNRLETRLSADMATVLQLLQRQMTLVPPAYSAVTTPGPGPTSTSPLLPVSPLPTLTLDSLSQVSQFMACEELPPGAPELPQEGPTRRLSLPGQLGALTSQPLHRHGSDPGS
Experimental: Preliminary screening measures were conducted by CEREP. All values fall within acceptable limits (Table 5). Solubility assays where performed by CEREP, Seattle, Wash., according to Lipinski, C. A. et al., 1997, Adv. Drug Del. Rev., 46:3-26. Protein binding assays where performed by CEREP, Seattle, Wash., according to Banker, M. J. et al., 2003, J. Pharm. Sci., 92:967-974. Permeability assays where performed by CEREP, Seattle, Wash. according to Hildalgo, I. J., 1998, Gastroenterology, 96:736-749. Metabolic stability assays where performed by CEREP, Seattle, Wash., according to Obach, R. S. et al., 1997, J. Pharmacol. Exp. Ther., 283:46-58. P-glycoprotein inhibition assays where performed by CEREP, Seattle, Wash., according to Polli, J. W. et al., 2001, J. Pharm. Exp. Ther., 299:620-628. Cell viability assays where performed by CEREP, Seattle, Wash., according to Mosmann, T., 1983, J. Immunol. Met. 65:55-62. hERG automated patch clamp assays where performed by CEREP, Seattle, Wash., according to Mathes, C., 2006, Expert Opin. Ther. Targets, 10:230-241.

CN1CCN(c2nc(NCCN3CCOCC3)c3nc(Cl)c(NCCN4CCOCC4)nc3n2)CC1 [JB6121, 6-chloro-2-(4-methylpiperazin-1-yl)-N^4,N^7-bis(2-morpholinoethyl)pteridine-4,7-diamine]
ED50 ([1]; 4 h, IP, read-out: ID50, TLR7 knockdown, IP dose): ~3.92 mg/kg
ED50 ([1]; 5 h, PO, read-out: ID50, TLR7 knockdown, PO dose): ~11.4 mg/kg
ID50, TLR7 knockdown, IP injection ([1]; mice, IP, JB6011 challenge): 98.34 μg injection dose
ID50, TLR7 knockdown, PO gavage ([1]; mice, PO, JB6011 challenge): 286 μg delivery dose
inhibition at 10 µM [2]: 11%

From patent publication US20170275287A1, “NOVEL N2, N4, N7, 6-TETRASUBSTITUTED PTERIDINE-2,4,7-TRIAMINE AND 2, 4, 6, 7-TETRASUBSTITUTED PTERIDINE COMPOUNDS AND METHODS OF SYNTHESIS AND USE THEREOF” (Janus Biotherapeutics, Inc., priority 2014, published 2017)
